Laboratory results as given in patent US9597271B2, “Cosmetic compositions and methods” (The Procter & Gamble Company, priority 2013, dated 2017).
“And” between values parts separate entries of the source, which are not always exact repeats. Identical values can stand only once.

Experiments:
20S proteasome [1] = molecular target: T1, 20S proteasome (Mus musculus, UniProt O55234); details: previously found, Hakozaki et al. 2013; cited from earlier work
T1 construct: endogenous in cells; host or cells: B16 melanoma cells (lysate after 20-24 h treatment)
T1 sequence (O55234 60-264): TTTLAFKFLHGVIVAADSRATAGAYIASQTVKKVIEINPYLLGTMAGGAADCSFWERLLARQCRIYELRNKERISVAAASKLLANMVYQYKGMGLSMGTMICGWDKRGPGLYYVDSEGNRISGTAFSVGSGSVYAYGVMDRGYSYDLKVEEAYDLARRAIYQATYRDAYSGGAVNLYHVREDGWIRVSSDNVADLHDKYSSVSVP

20S proteasome [2] = molecular target: T1, 20S proteasome; assay: Proteasomal protease in vitro assay (ProteasomeGlo, Suc-LLVY luminogenic substrate) in B16 melanoma cells; assay type: cell-based; details: for Fold Change Over Control (luminescence): B16 melanoma cells; for Ricinoleate concentration at which synergy with niacinamide is statistically significant: combined with 250 μM niacinamide
Method: The following proteasomal protease in vitro assay was employed for evaluating activity associated with this pathway. Cultures of B16 melanoma cells (about 25% confluence) were treated with a culture media (Dulbecco's Modified Eagle Medium, 11995-065 Life technologies supplemented with 5% Fetal Bovine Serum, 30-2020, American Tissue Culture Collection and 1% Penicillin/streptomycin, 15140, Life Technologies) and one of 1) a vehicle (DMSO) containing niacinamide, 2) a vehicle (DMSO) containing one of glycerol ricinoleate, sodium ricinoleate and butyl acetyl ricinoleate at varying dilutions, 3) a vehicle (DMSO) containing a combination of niacinamide and one of the ricinoleate compounds listed above, and 4) a vehicle (DMSO) containing 2-hexyl-decanol as a positive control. The final dilution of DMSO in the culture medium was 1% in all instances. The treated melanoma cells were incubated in multi-well plates at 37° C. in a CO2 incubator for a period of 20 to 24 hours. The treated cells were thereafter lyzed by removing the culture medium and replacing it with 100 uL/well of CellGlo lysis reagent (available from Promega, Wis., USA) followed by incubation at room temperature for about 10 minutes. A luminogenic substrate containing a Suc-LLVY peptide sequence recognized by the 20S proteasome was added to the B16 cultures, and the mixtures were incubated in multi-well plates at a temperature of 25° C. for approximately 10 minutes. Luminescence counts (a unit less measurement from the plate reader) from developing the cleaved substrate with luciferase detection system (ProteasomeGlo® from Promega, Madison, Wis.) was measured in an Envision Plate Reader (Perkin Elmer, Waltham, Mass.). Other plate luminometer/luminescence readers may also be used as known in the art.
Luminescence counts for treatment groups were divided by the luminescence counts from the vehicle control (1% DMSO, as diluted in the culture medium). […] 2-hexyldecanol, a known skin tone agent, was also previously found to activate this proteasomal chymotryptic protease activity. See, e.g., Hakozaki et al., A regulator of ubiquitin-proteasome activity, 2-hexyldecanol, suppresses melanin synthesis and the appearance of facial hyperpigmented spots, British Journal of Dermatology 2013, 169 (Supp 2), pp 39-44.

[3] = experiment #1, N=3, 20 to 24 hours, DMSO vehicle
[4] = experiment #2, N=3, 20 to 24 hours, DMSO vehicle
[5] = vitamin B3 compound alone, 250 uM, B16 cells, average of 3 replicates
[6] = ricinoleate compound alone, 0.000064 w/v %, B16 cells
[7] = ricinoleate compound alone, 0.00032 w/v %, B16 cells
[8] = ricinoleate compound alone, 0.0016 w/v %, B16 cells
[9] = ricinoleate compound alone, 0.008 w/v %, B16 cells

Compound | Fold Change Over Control (luminescence) (20S proteasome [2]; Avg. of experiments #1 and #2) | Fold Change Over Control (luminescence) (20S proteasome [2]; [3]) | Fold Change Over Control (luminescence) (20S proteasome [2]; [4]) | Net Luminescence (treatment luminescence counts − vehicle control luminescence counts) (20S proteasome [2]; [5]) | Net Luminescence (treatment luminescence counts − vehicle control luminescence counts) (20S proteasome [2]; [6]) | Net Luminescence (treatment luminescence counts − vehicle control luminescence counts) (20S proteasome [2]; [7]) | Net Luminescence (treatment luminescence counts − vehicle control luminescence counts) (20S proteasome [2]; [8]) | Net Luminescence (treatment luminescence counts − vehicle control luminescence counts) (20S proteasome [2]; [9]) | also measured
CCCCCCCCC(CO)CCCCCC (stereo not shown) [2-hexyldecanol, reference compound] | 1.16 | 1.15 | 1.17 | – | – | – | – | – | Activation of proteasomal chymotryptic protease activity (in words) (20S proteasome [1]): activate
nicotinamide ribose | – | – | – | 392 | – | – | – | – | –
CCCCCC[C@H](C/C=C\CCCCCCCC(=O)OCCCC)OC(C)=O [Butyl acetyl ricinoleate, butyl acetyl ricinoleate] | 1.29 | 1.32 | 1.26 | – | 1224 | 2164 | 2357 | 2439 | Ricinoleate concentration at which synergy with niacinamide is statistically significant (20S proteasome [2]; B16 cells): ≥ 0.00032%
O=C(O)c1cccnc1 [Nicotinic acid, nicotinic acid] | – | – | – | 303 | – | – | – | – | –
CCCCCC[C@@H](O)C/C=C\CCCCCCCC(=O)OCC(O)CO (stereo partly shown) [Glyceryl ricinoleate, glyceryl ricinoleate] | 1.17 | 1.15 | 1.18 | – | 123 | 534 | 839 | 867 | Net Luminescence (treatment luminescence counts − vehicle control luminescence counts) (20S proteasome [2]; ricinoleate compound alone, 0.00032 w/v %, B16 cells, listed as GR): 287 and 518; Net Luminescence (treatment luminescence counts − vehicle control luminescence counts) (20S proteasome [2]; ricinoleate compound alone, 0.0016 w/v %, B16 cells, listed as GR): 745 and 1258; Net Luminescence (treatment luminescence counts − vehicle control luminescence counts) (20S proteasome [2]; ricinoleate compound alone, 0.008 w/v %, B16 cells, listed as GR): 789 and 1125
CCCCCC[C@@H](O)C/C=C\CCCCCCCC(=O)[O-].[Na+] [Sodium ricinoleate, sodium ricinoleate] | 1.24 | 1.26 | 1.21 | – | 123 | 878 | 1805 | 2164 | –
OCc1cccnc1 [3-pyridinemethanol] | – | – | – | 105 | – | – | – | – | –
COC(=O)c1cccnc1 [Methyl niconate, methyl niconate] | – | – | – | 162 | – | – | – | – | –
CCCCCC[C@@H](O)C/C=C\CCCCCCCC(=O)OC [Methyl ricinoleate, methyl ricinoleate] | – | – | – | – | – | – | – | 4222 | Ricinoleate concentration at which synergy with niacinamide is statistically significant (20S proteasome [2]; B16 cells): 0.008%
NC(=O)c1cccnc1 [Niacinamide, niacinamide] | – | – | – | 158 (4×) and 257 (8×) and 1503 | – | – | – | – | Activation of proteasomal protease activity, single agent (in words) (20S proteasome [2]; B16 cells): lower level of activation
